Measured values: patent publication US20100311741A1, “Bicyclosulfonyl Acid (BCSA) Compounds and Their Use as Therapeutic Agents” (INHIBOX LTD., priority 2007, published 2010)

| SMILES | melting point |
| --- | --- |
| COc1cccc(N2C(CC(=O)NO)c3ccccc3S2(=O)=O)c1 (stereo not drawn) [Compound (5.7), 2-[2-(3-Methoxyphenyl)-1,1-dioxo-2,3-dihydro-1H-benzo[d]isothiazol-3-yl]-N-hydroxyacetamide] | 147 to 148 °C |
| COc1ccc(N2C(CC(=O)NO)c3ccccc3S2(=O)=O)cc1 (stereo not drawn) [Compound (5.8), 2-[2-(4-Methoxyphenyl)-1,1-dioxo-2,3-dihydro-1H-benzo[d]isothiazol-3-yl]-N-hydroxyacetamide] | 185 to 186 °C |
| O=C(CC1c2ccccc2S(=O)(=O)N1c1cccc(Oc2ccccc2)c1)NO (stereo not drawn) [Compound (5.9), 2-[2-(3-Phenoxyphenyl)-1,1-dioxo-2,3-dihydro-1H-benzo[d]isothiazol-3-yl]-N-hydroxyacetamide] | 181 to 182 °C |
| O=C(CC1c2ccccc2S(=O)(=O)N1c1ccc(Cl)cc1)NO (stereo not drawn) [Compound (5.10), 2-[2-(4-Chlorophenyl)-1,1-dioxo-2,3-dihydro-1H-benzo[d]isothiazol-3-yl]-N-hydroxyacetamide] | 184 to 185 °C |
| CSc1ccc(N2C(CC(=O)NO)c3ccccc3S2(=O)=O)cc1 (stereo not drawn) [Compound (5.20), 2-[1,1-Dioxo-2-(4-methylsulfanylphenyl)-2,3-dihydro-1H-benzo[d]isothiazol-3-yl]-N-hydroxyacetamide] | 197 to 198 °C (dec.) |
| O=C(CC1c2ccccc2S(=O)(=O)N1c1ccc(-c2ccccc2)cc1)NO (stereo not drawn) [Compound (5.23), 2-(2-Biphenyl-4-yl-1,1-dioxo-2,3-dihydro-1H-benzo[d]isothiazol-3-yl)-N-hydroxyacetamide] | 207 to 208 °C (dec.) |
| O=C(CC1c2ccccc2S(=O)(=O)N1c1ccc(Oc2ccccc2)cc1)NO (stereo not drawn) [Compound (5.24), 2-[1,1-Dioxo-2-(4-phenoxy-phenyl)-2,3-dihydro-1H-benzo[d]isothiazol-3-yl]-N-hydroxyacetamide] | 174 to 175 °C |
| O=C(CC1c2ccccc2S(=O)(=O)N1c1ccc(OCc2ccccc2)cc1)NO (stereo not drawn) [Compound (5.25), 2-[2-(4-Benzyloxy-phenyl)-1,1-dioxo-2,3-dihydro-1H-benzo[d]isothiazol-3-yl]-N-hydroxyacetamide] | 186 to 187 °C |
| O=C(CC1c2ccccc2S(=O)(=O)N1c1ccc(-n2cccc2)cc1)NO (stereo not drawn) [Compound (5.26), 2-[1,1-Dioxo-2-(4-pyrrol-1-yl-phenyl)-2,3-dihydro-1H-benzo[d]isothiazol-3-yl]-N-hydroxyacetamide] | 192 to 194 °C (dec.) |
| O=C(CC1c2ccccc2S(=O)(=O)N1c1ccc(-n2ccnc2)cc1)NO (stereo not drawn) [Compound (5.27), 2-[2-(4-Imidazol-1-yl-phenyl)-1,1-dioxo-2,3-dihydro-1H-benzo[d]isothiazol-3-yl]-N-hydroxyacetamide] | 199 to 201 °C (dec.) |
| O=C(CC1c2ccccc2S(=O)(=O)N1c1ccc(-n2cncn2)cc1)NO (stereo not drawn) [Compound (5.28), 2-[1,1-Dioxo-2-(4-[1,2,4]triazol-1-yl-phenyl)-2,3-dihydro-1H-benzo[d]isothiazol-3-yl]-N-hydroxyacetamide] | 205 to 207 °C (dec.) |
| O=C(CC1c2ccccc2S(=O)(=O)N1c1ccc(-c2cnco2)cc1)NO (stereo not drawn) [Compound (5.29), 2-[2-(4-Oxazol-5-yl-phenyl)-1,1-dioxo-2,3-dihydro-1H-benzo[d]isothiazol-3-yl]-N-hydroxyacetamide] | 138 to 140 °C (dec.) |
| Cc1nc(-c2ccc(N3C(CC(=O)NO)c4ccccc4S3(=O)=O)cc2)cs1 (stereo not drawn) [Compound (5.30), 2-{2-[4-(2-Methylthiazol-4-yl)phenyl]-1,1-dioxo-2,3-dihydro-1H-benzo[d]isothiazol-3-yl}-N-hydroxyacetamide] | 179 to 181 °C (dec.) |
| CN(C)c1ccc(N2C(CC(=O)NO)c3ccccc3S2(=O)=O)cc1 (stereo not drawn) [Compound (5.31), 2-[2-(4-Dimethylaminophenyl)-1,1-dioxo-2,3-dihydro-1H-benzo[d]isothiazol-3-yl]-N-hydroxyacetamide] | 185 to 186 °C |
| O=C(CC1c2ccccc2S(=O)(=O)N1c1ccc(N2CCOCC2)cc1)NO (stereo not drawn) [Compound (5.32), 2-[2-(4-Morpholin-4-ylphenyl)-1,1-dioxo-2,3-dihydro-1H-benzo[d]isothiazol-3-yl]-N-hydroxyacetamide] | 204 to 206 °C |
| CCOc1ccc(N2C(CC(=O)NO)c3ccccc3S2(=O)=O)cc1 (stereo not drawn) [Compound (5.33), 2-[2-(4-Ethoxyphenyl)-1,1-dioxo-2,3-dihydro-1H-benzo[d]isothiazol-3-yl]-N-hydroxyacetamide] | 177 to 178 °C |
| CCCCOc1ccc(N2C(CC(=O)NO)c3ccccc3S2(=O)=O)cc1 (stereo not drawn) [Compound (5.34), 2-[2-(4-Butoxyphenyl)-1,1-dioxo-2,3-dihydro-1H-benzo[d]isothiazol-3-yl]-N-hydroxyacetamide] | 165 to 166 °C |
| O=C(CC1c2ccccc2S(=O)(=O)N1c1cccc(F)c1)NO (stereo not drawn) [Compound (5.36), 2-[2-(3-Fluoro-phenyl)-1,1-dioxo-2,3-dihydro-1H-benzo[d]isothiazol-3-yl]-N-hydroxyacetamide] | 145 to 147 °C (dec.) |

Results, then the molecule that gave them:

| melting point | SMILES |
| --- | --- |
| 188 to 190 °C | COc1cccc2c1C(CC(=O)NO)N(c1ccccc1)S2(=O)=O (stereo not drawn) [Compound 54.1, 2-(4-Methoxy-1,1-dioxo-2-phenyl-2,3-dihydro-1H-benzo[d]isothiazol-3-yl)-N-hydroxyacetamide] |
| 204 to 206 °C | O=C(CC1c2c(Cl)cccc2S(=O)(=O)N1c1ccccc1)NO (stereo not drawn) [Compound 54.2, 2-(4-Chloro-1,1-dioxo-2-phenyl-2,3-dihydro-1H-benzo[d]isothiazol-3-yl)-N-hydroxyacetamide] |
| 187 to 189 °C | O=C(CC1c2cccc(C(F)(F)F)c2S(=O)(=O)N1c1ccccc1)NO (stereo not drawn) [Compound 54.3] |
| > 188 °C (dec.) | O=C(CC1c2cccc(Cl)c2S(=O)(=O)N1c1ccccc1)NO (stereo not drawn) [Compound 54.7, 2-(7-Chloro-1,1-dioxo-2-phenyl-2,3-dihydro-1H-benzo[d]isothiazol-3-yl)-N-hydroxyacetamide] |
| > 161 °C (dec.) | COc1cccc2c1S(=O)(=O)N(c1ccccc1)C2CC(=O)NO (stereo not drawn) [Compound 54.10, (7-Methoxy-1,1-dioxo-2-phenyl-2,3-dihydro-1H-benzo[d]isothiazol-3-yl)-N-hydroxyacetamide] |
| > 170 °C (dec.) | COc1cc(Cl)cc2c1S(=O)(=O)N(c1ccccc1)C2CC(=O)NO (stereo not drawn) [Compound 54.11, (5-Chloro-7-Methoxy-1,1-dioxo-2-phenyl-2,3-dihydro-1H-benzo[d]isothiazol-3-yl)-N-hydroxyacetamide] |
| 184 to 188 °C (dec.) | COc1ccc2c(c1Cl)C(CC(=O)NO)N(c1ccccc1)S2(=O)=O (stereo not drawn) [Compound 54.12, (4-Chloro-5-Methoxy-1,1-dioxo-2-phenyl-2,3-dihydro-1H-benzo[d]isothiazol-3-yl)-N-hydroxyacetamide] |
| 188 to 191 °C | O=C(NO)C1c2ccccc2S(=O)(=O)N1c1ccccc1 (stereo not drawn) [Compound 62.1, 1,1-Dioxo-2-phenyl-2,3-dihydro-1H-benzo[d]isothiazole-3-carboxylic acid hydroxyamide] |
| 167 to 170 °C | O=C(NO)C1c2c(Cl)cccc2S(=O)(=O)N1c1ccccc1 (stereo not drawn) [Compound 62.2, 4-Chloro-1,1-dioxo-2-phenyl-2,3-dihydro-1H-benzo[d]isothiazole-3-carboxylic acid hydroxyamide] |
